Results taken from patent US8999981B2, “3-amido-pyrrolo[3,4-C]pyrazole-5(1H, 4H,6H) carbaldehyde derivatives” (Pfizer Inc., priority 2007, dated 2015).
pKi: −log10 of the molar value.

Each molecule was assayed against Protein Kinase C beta 2 (PKCβII) (Homo sapiens (Human), UniProt P05771) (assay: PKCβII coupled PK/LDH spectrophotometric kinase assay). Conditions: apparent Ki, ATP-competitive model (Morrison equation); 0.1 mM ATP, 30° C.; read-out: PKCb Ki.
Type: biochemical

Chain of Protein Kinase C beta 2 (PKCβII) (P05771 other isoform, or with tags, fused parts or gaps): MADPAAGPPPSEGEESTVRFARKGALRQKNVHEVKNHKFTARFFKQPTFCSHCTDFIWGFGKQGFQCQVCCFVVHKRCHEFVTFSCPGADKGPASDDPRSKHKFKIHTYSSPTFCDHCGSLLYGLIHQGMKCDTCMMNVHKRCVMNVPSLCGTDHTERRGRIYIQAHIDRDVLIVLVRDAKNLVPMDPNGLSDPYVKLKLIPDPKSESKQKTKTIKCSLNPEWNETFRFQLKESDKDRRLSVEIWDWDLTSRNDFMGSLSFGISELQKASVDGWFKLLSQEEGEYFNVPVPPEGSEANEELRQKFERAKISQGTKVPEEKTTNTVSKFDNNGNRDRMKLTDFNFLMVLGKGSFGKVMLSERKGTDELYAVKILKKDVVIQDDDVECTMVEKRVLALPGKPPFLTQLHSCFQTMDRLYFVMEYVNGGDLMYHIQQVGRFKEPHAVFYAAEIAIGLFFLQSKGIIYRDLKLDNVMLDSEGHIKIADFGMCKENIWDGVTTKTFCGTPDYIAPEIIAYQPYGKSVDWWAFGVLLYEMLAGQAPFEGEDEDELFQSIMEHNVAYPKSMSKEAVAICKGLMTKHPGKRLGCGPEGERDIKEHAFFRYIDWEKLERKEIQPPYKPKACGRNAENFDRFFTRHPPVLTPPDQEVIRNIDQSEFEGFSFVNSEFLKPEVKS

Row | pKi | Compound
1 | 7.53 | C[C@H]1CN2CCC[C@H]2CN1C(=O)N1Cc2c(NC(=O)c3ccccn3)n[nH]c2C1(C)C [Example A1, N-(6,6-Dimethyl-5-((3S,8aS)-3-methyl-octahydropyrrolo[1,2-a]pyrazine-2-carbonyl)-1,4,5,6-tetrahydropyrrolo[3,4-c]pyrazol-3-yl)picolinamide]
2 | 7.06 | CC1(C)CN2CCC[C@H]2CN1C(=O)N1Cc2c(NC(=O)c3cccc(Cl)c3)n[nH]c2C1(C)C [Example A57]
3 | 7.28 | C[C@@H]1CN(C(=O)N2Cc3c(NC(=O)c4cnccn4)n[nH]c3C2(C)C)[C@@H](C)CN1CC1CCOCC1 [Example F57]
4 | 6.88 | C[C@@H]1CN(C(=O)N2Cc3c(NC(=O)c4ncccn4)n[nH]c3C2(C)C)[C@@H](C)CN1CC1CCOCC1 [Example F58]
5 | 6.89 | CC[C@H](C)[C@H]1CN2CCC[C@@H]2CN1C(=O)N1Cc2c(NC(=O)c3ccccn3)n[nH]c2C1(C)C [Example A80]
6 | 6.82 | C[C@H]1CN(C)[C@@H](CCO)CN1C(=O)N1Cc2c(NC(=O)c3ccccn3)n[nH]c2C1(C)C [Example A151]
7 | 7.12 | CC1(C)c2n[nH]c(NC(=O)c3ccccn3)c2CN1C(=O)C1(F)CCN(C2CCC2)CC1 [Example B1, Pyridine-2-carboxylic acid [5-(1-cyclobutyl-4-fluoro-piperidine-4-carbonyl)-6,6-dimethyl-1,4,5,6-tetrahydro-pyrrolo[3,4-c]pyrazol-3-yl]-amide]
8 | 7.29 | Cc1cc(C(=O)Nc2n[nH]c3c2CN(C(=O)N2C[C@@H]4CCCN4C[C@@H]2C)C3(C)C)ccc1F [Example A62]
9 | 7.65 | CCc1nc(C)c(C(=O)Nc2n[nH]c3c2CN(C(=O)N2C[C@@H](C)N(CC4CCOCC4)C[C@@H]2C)C3(C)C)o1 [Example F1, N-(5-{[(2S,5R)-2,5-dimethyl-4-(tetrahydro-2H-pyran-4-ylmethyl)piperazin-1-yl]carbonyl}-6,6-dimethyl-1,4,5,6-tetrahydropyrrolo[3,4-c]pyrazol-3-yl)-2-ethyl-4-methyl-1,3-oxazole-5-carboxamide]
10 | 7.60 | C[C@H](CCO)N1C[C@H](C)N(C(=O)N2Cc3c(NC(=O)c4ccccn4)n[nH]c3C2(C)C)C[C@H]1C [Example A154]
11 | 7.56 | CC1(C)c2[nH]nc(NC(=O)c3ccc4ccccc4n3)c2CN1C(=O)N1C[C@@H]2CCCN2C[C@@H]1Cc1ccccc1 [Example A13]
12 | 7.67 | C[C@H]1CN2CCC[C@H]2CN1C(=O)N1Cc2c(NC(=O)c3cc(Cl)ccn3)n[nH]c2C1(C)C [Example A68]
13 | 7.70 | Cc1noc(C)c1CC(=O)Nc1n[nH]c2c1CN(C(=O)N1C[C@@H](C)N(CC3CCOCC3)C[C@@H]1C)C2(C)C [Example F59]
14 | 7.05 | CC(C)[C@H]1CN(C)C(C)(C)CN1C(=O)N1Cc2c(NC(=O)c3ccccn3)n[nH]c2C1(C)C [Example A134]
15 | 7.02 | COc1cc(C(=O)Nc2n[nH]c3c2CN(C(=O)N2C[C@@H]4CCCN4C[C@@H]2C)C3(C)C)nc(OC)n1 [Example A59]
16 | 7.03 | CC[C@H]1CN(C(=O)N2Cc3c(NC(=O)c4ccccn4)n[nH]c3C2(C)C)[C@@H](C)CN1C [Example A125]
17 | 7.77 | C[C@H]1CN2CCC[C@H]2CN1C(=O)N1Cc2c(NC(=O)c3cccc(C#N)c3)n[nH]c2C1(C)C [Example A60]
18 | 8.17 | C[C@H]1CN2CCC[C@H]2CN1C(=O)N1Cc2c(NC(=O)c3cc(C4CC4)n[nH]3)n[nH]c2C1(C)C [Example E6]
19 | 7.80 | C=CCN1C[C@H](C)N(C(=O)N2Cc3c(NC(=O)c4ccccn4)n[nH]c3C2(C)C)C[C@H]1C [Example A89]
20 | 7.50 | Cc1nc(C(=O)Nc2n[nH]c3c2CN(C(=O)N2C[C@@H]4CCCN4C[C@@H]2C)C3(C)C)cs1 [Example E9]
21 | 8.77 | C[C@@H]1CN(C(=O)N2Cc3c(NC(=O)c4ccccn4)n[nH]c3C2(C)C)[C@@H](C)CN1C1CCOCC1 [Example A146]
22 | 7.45 | Cc1cc(C(=O)Nc2n[nH]c3c2CN(C(=O)N2C[C@@H]4CCCN4C[C@@H]2C)C3(C)C)nc(Cl)n1 [Example A58]

Row | Compound | pKi
23 | C[C@@H]1CN(C(=O)N2Cc3c(NC(=O)c4cc(C5CC5)on4)n[nH]c3C2(C)C)[C@@H](C)CN1CC1CCOCC1 [Example F11] | 7.53
24 | C[C@H]1CN2CCC[C@H]2CN1C(=O)N1Cc2c(NC(=O)c3ccc(F)c(Cl)c3)n[nH]c2C1(C)C [Example A34] | 7.66
25 | COc1ccc(C(=O)Nc2n[nH]c3c2CN(C(=O)N2C[C@@H]4CCCN4C[C@@H]2Cc2ccccc2)C3(C)C)cc1 [Example A18] | 7.52
26 | CC(C)[C@H]1CN(C)C(C)CN1C(=O)N1Cc2c(NC(=O)c3ccc(Cl)cn3)n[nH]c2C1(C)C (some centres unmarked) [Example A135] | 7.29
27 | Cc1cc(C(=O)Nc2n[nH]c3c2CN(C(=O)N2C[C@@H](C)N(CC4CCOCC4)C[C@@H]2C)C3(C)C)on1 [Example F21] | 7.42
28 | CN1CCN(C(=O)N2Cc3c(NC(=O)c4ccc5ccccc5n4)n[nH]c3C2(C)C)[C@@H](Cc2ccccc2)C1 [Example A8] | 7.11
29 | Cc1nonc1C(=O)Nc1n[nH]c2c1CN(C(=O)N1C[C@@H](C)N(CC3CCOCC3)C[C@@H]1C)C2(C)C [Example F22] | 7.33
